Source: US11583507B2, “Direct AMPK activator compounds” (SOCIETE DES PRODUITS NESTLE S.A., priority 2018, dated 2023)

Tests used:
[1] = target: T1, AMPK α2β1γ1 R298G (211 R298G) mutant (Homo sapiens, UniProt P54619+P54646+Q9Y478, R299G); test: AMPK in vitro activity assay (HTRF-KinEASE), γ1 R298G mutant; type: biochemical; settings: mutation in the γ1 AMP binding pocket
T1 construct: His; made in house; host or cells: bacteria
Method: Lusianthridin (CAS 87530-30-1) was isolated from Thunia alba fruit. It was sourced from Analyticon (NP-012362). The plant was purchased through Analyticon's biomaterial supplier in 2003. The country of origin is Nepal. The AMPK heterotrimers were expressed in bacteria and purified through the His-α subunit by nickel purification. AMPK complexes were purified through gel filtration and phosphorylated by incubation with CaMKKβ, and further purified with a final gel filtration purification step. Phosphorylated purified AMPK was incubated with varying concentrations of ligand for 30 mins using substrate and reagents from the HTRF-KinEASE Cisbio assay kit (STK S1 Kit). Phosphorylation of the substrate was measured by incubating with donor and acceptor antibodies for 2 h at room temperature as per the manufacturer's protocol (and Coulerie et al., (2016) PMID: 27792327) and phosphorylated peptide detected by performing HTRF. The 665 nm/620 nm ratio was determined and the results are plotted as fold activation compared to the respective AMPK complex without any compound.

AMPK substrate, ACC = test: pACC HTRF assay in mouse primary hepatocytes; type: cell-based; settings: 1 h incubation at 37 C, dose-dependent
Method: Hepatocyte isolation: The liver was first perfused with 50 ml perfusion buffer (Krebs-Hepes buffer with […] EDTA), followed with 50 ml collagenase A buffer (Krebs-Hepes buffer with 5 mM CaCl2 and 0.5 mg/ml collagenase). […] Hepatocytes were left to attach (3-4 h) and cultured overnight in M199 supplemented with antibiotics and 100 nM dexamethasone. Cells were used for experiments the following morning. Primary hepatocytes were seeded at 15 K cells in a 96-well plate overnight. Cells were treated for 1 h with varying concentrations of Lusianthridin in media and then cells were lysed in 50 μl of Cisbio lysis buffer #1 supplemented with blocking solution as per the manufacturer's protocol (Cisbio). Cells were lysed for 30 mins at room temperature before 16 μl of lysate was incubated with 4 μl of the HTRF antibodies. Lysates were incubated overnight with the antibody before 665 nm/620 nm ratio was determined using a MolecularDevices i3 plate reader (with a HTRF cartridge add-on).

[2] = system: differentiated C2C12 cells; test: Glucose uptake (3H-2-deoxyglucose) into differentiated C2C12 cells; type: cell-based; settings: Lusianthridin 100 μM for 4 h at 37 C
Method: C2C12 cells were maintained in DMEM GlutaMAX supplemented with 10% (vol/vol) FBS and 100 U/ml penicillin G, and 100 μg/ml streptomycin. C2C12 myoblasts were differentiated into myotubes by 7 days of culture in DMEM GlutaMAX supplemented with 2% (vol/vol) horse serum and antibiotics. Cells were transferred to serum-free media for 24 hours, before equilibrating with bicarbonate-free medium prior to treatment. Cells were treated with Control (DMSO 1% final concentration) or 100 μM Lusianthridin in the presence of ^3H-2-deoxyglucose (in Krebs-Hepes buffer containing sodium pyruvate). Cells were lysed and the quantity of ^3H determined in these samples using a scintillation counter.
Activation of AMPK in muscle cells has been previously shown to increase glucose uptake. […] Differentiated C2C12 cells were treated with either control or 100 μM Lusianthridin for 4 h at 37 C. Glucose uptake was determined by monitoring the uptake of ^3H-2-deoxyglucose into cells. […] This is consistent with the important role of AMPK in mediating glucose uptake in muscle.

T1 sequence (P54646 whole entry): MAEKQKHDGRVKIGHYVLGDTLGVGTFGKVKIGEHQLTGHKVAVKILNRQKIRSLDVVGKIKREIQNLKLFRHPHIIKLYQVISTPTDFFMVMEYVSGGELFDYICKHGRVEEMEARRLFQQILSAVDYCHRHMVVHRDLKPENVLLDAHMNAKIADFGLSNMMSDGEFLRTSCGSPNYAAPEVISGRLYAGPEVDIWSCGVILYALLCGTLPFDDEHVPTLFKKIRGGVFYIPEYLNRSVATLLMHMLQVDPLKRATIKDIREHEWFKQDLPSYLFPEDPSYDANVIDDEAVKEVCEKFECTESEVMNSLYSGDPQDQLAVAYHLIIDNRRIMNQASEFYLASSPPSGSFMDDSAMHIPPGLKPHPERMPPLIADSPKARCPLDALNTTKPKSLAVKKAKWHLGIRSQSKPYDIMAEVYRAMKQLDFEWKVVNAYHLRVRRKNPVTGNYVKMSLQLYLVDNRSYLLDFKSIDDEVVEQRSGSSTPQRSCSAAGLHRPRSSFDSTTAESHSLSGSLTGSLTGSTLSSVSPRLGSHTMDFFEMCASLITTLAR
T1 sequence (Q9Y478 whole entry): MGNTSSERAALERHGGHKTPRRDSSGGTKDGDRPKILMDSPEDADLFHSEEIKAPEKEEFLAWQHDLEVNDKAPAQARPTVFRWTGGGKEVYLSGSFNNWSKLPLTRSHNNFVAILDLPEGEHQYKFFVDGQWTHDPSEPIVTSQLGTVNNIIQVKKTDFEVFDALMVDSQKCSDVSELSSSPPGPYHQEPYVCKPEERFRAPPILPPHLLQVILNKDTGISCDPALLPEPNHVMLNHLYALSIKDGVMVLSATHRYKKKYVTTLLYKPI
T1 sequence (P54619 whole entry R299G): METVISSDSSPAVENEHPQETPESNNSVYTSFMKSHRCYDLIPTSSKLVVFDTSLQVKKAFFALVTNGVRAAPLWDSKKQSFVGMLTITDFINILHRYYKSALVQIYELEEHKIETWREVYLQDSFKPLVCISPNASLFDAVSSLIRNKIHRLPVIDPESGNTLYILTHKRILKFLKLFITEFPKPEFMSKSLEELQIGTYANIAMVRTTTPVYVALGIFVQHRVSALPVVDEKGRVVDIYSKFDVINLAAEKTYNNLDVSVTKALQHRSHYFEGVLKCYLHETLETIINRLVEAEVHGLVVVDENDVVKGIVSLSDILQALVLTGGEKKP

activation of AMPK α2β1γ1 γ1 R298G mutant complexes [1]: still activates
Compound: COc1cc(O)c2c(c1)CCc1cc(O)ccc1-2 [Lusianthridin, 7-Methoxy-9,10-dihydrophenanthrene-2,5-diol]
phosphorylation of the AMPK substrate ACC (pACC HTRF) (AMPK substrate, ACC): increases
fold increase in glucose uptake relative to control [2]: ~2 fold
